Measurements: patent publication US8058344B2, “Glycodendrimers having biological activity” (Imperial Innovations Ltd, priority 2002, dated 2011)

What was measured:
[1] = test system: brain cell line transfected with human CD4 and the human chemokine receptor CCR5 (U87-CD4-CCR5); experiment: Toxicity in cell lines, MTT assay; assay type: cell-based; conditions: 67 h, ± SEM (n = 16)
Description: (§1) The compounds synthesised were evaluated for their toxicity in the following cell lines:—the human T-cell line (Sup-T1), a human T-cell line transformed with HTLV-1 (C8166), the human monocytic cell line (U937), the brain cell line transfected with human CD4 and the human chemokine receptor CCR5 (U87-CD4-CCR5), and the murine melanoma cell line (B16P10).
(§2) Dendrimers, glucosamine, glucosamine 6-sulfate and dendrimer conjugates were incubated with each cell line. […] The conjugates or controls were incubated for 67 h with the cells at concentrations ranging from […]. An MTT assay was then used to determine cell viability and the results were expressed as a percentage of that for cells grown in the absence of any compound.

[2] = test system: human T-cell line (Sup-T1); experiment: Toxicity in cell lines, MTT assay; assay type: cell-based; conditions: 67 h, ± SEM (n = 16)
Description: as §1, §2

[3] = test system: human T-cell line transformed with HTLV-1 (C8166); experiment: Toxicity in cell lines, MTT assay; assay type: cell-based; conditions: 67 h, ± SEM (n = 16)
Description: as §1, §2

[4] = test system: human monocytic cell line (U937); experiment: Toxicity in cell lines, MTT assay; assay type: cell-based; conditions: U-937, 67 h, ± SEM (n = 16)
Description: as §1, §2

[5] = test system: murine melanoma cell line (B16F10); experiment: Toxicity in cell lines, MTT assay; assay type: cell-based; conditions: Mus musculus, B16-F10, 67 h, ± SEM (n = 16)
Description: as §1, §2

[6] = test system: Sup-T1, C8166, U937, U87-CD4-CCR5 and B16F10 cells; experiment: Toxicity in cell lines, MTT assay, stated over all cell lines; assay type: cell-based, human; murine; conditions: concentrations up to 1,000 μg/ml
Description: as §1, §2

[7] = test system: freshly isolated human PBMN cells and human MDM; experiment: Toxicity against primary human cells in vitro, MTT assay; assay type: cell-based; conditions: up to the maximum concentration of 1,000 μg/ml
Description: The dendrimers and the dendrimer conjugates were incubated with freshly isolated, human peripheral blood mononuclear (PBMN) cells and with freshly isolated human monocyte-derived-macrophages QDM).
Human PBMN cells and human MDMs were separated from buffy coat residues within 24 h of collection by density gradient centrifugation. […] The monocytes were allowed to differentiate to MDMs by a further 3 days of adherence. The compounds were then added to PBMN cells or to MDMs (1×10^6 cells/ml) and incubated for 67 h. Cell viability was assessed using the MTT assay at 72 h.

[8] = test system: human umbilical vein endothelial cells; experiment: Endothelial microtubule formation assay on Matrigel; assay type: cell-based; conditions: 100 μg/ml; 18 h; scale 0-4
Description: The endothelial microtubule formation assay was performed by isolating human umbilical vein endothelial cells from umbilical cords within 6 h of delivery by caesarean section. The embilical vein was cannulated and 0.1% collagenase in phosphate buffered saline was introduced and incubated for 20 minutes. The endothelial cells liberated by the collagenase were obtained by washing the umbilical vein with Medium 199. The cells were washed three times with Medium 199 and then cultured in tissue culture flasks coated with fibronectin. Growth media consisted of Medium 199 with 20% foetal bovine serum, 30 μg/ml endothelial cell growth supplement, 10 IU/ml heparin, 100 IU/ml penicillin, 100 μg/1 ml streptomycin and 2 mM L-glutamine. Human umbilical vein endothelial cells were passaged at confluence after treatment with trypsin-EDTA. All cells were used at passages to 6.
Aliquots of Matrigel were dispensed into 35 mm diameter tissue culture dishes on ice and then incubated at 37° C. for 10 min to allow the gel to set. […] At various time points from 8-24 hours, the plates were examined and scored using a published scheme from 0-4, where 0=all adherent cells remain single, and 4=all adherent cells involved in tubular structures. New vessel formation was quantified blind by three different observers at 18 h. […]
Endothelial microtubule formation by HUVECs on Matrigel (×40 magnification). A visual analogue scale was used to determine the extent of tube formation and scored on a scale from 0 (all cells remain single) to 4 (all cells involved in tubular structures) as previously described (Bauer J, Margolis M, Schreiner C, Edgell C-J, Azizkhan J, Lazarowski E, & Juliano R L. (1992) In vitro model of angiogenesis using a human endothelium derived permanent cell line: contributions of induced gene expression, G-proteins and integrins. J. Cellular Physiology 153: 437-449; Liaw, L & Schwartz S M. (1993) Microtubule disruption stimulates DNA synthesis in bovine endothelial cells and potentiates cellular response to basic fibroblast growth factor. […]

Question: How did the IC50 [1] turn out when `N[C@H]1C(O)O[C@H](COS(=O)(=O)O)[C@@H](O)[C@@H]1O` (stereo partly shown) [glucosamine 6-sulfate] was run?
Answer: > 1000 µg/mL

Question: And the IC50 [2]?
Answer: > 1000 µg/mL

Question: What about the IC50 [3] of the same molecule?
Answer: > 1000 µg/mL

Question: And the IC50 [4]?
Answer: > 1000 µg/mL

Question: And the IC50 [5]?
Answer: > 1000 µg/mL

Question: And the toxicity [6]?
Answer: no toxicity

Question: What about the “toxicity to PBMN cells or to MDMs” value [7] of the same molecule?
Answer: not toxic

Question: And the “Tube formation score (n = 4)” value [8]?
Answer: 4

Question: What does the source list for `N[C@H]1C(O)O[C@H](CO)[C@@H](O)[C@@H]1O` (stereo partly shown) [glucosamine]?
Answer: IC50 [1]: > 1000 µg/mL; IC50 [2]: > 1000 µg/mL; IC50 [3]: > 1000 µg/mL; IC50 [4]: > 1000 µg/mL; IC50 [5]: > 1000 µg/mL; toxicity [6]: no toxicity; Tube formation score (n = 4) [8]: 4

Question: How did the “Tube formation score (n = 4)” value [8] turn out when `N[C@H]1C(O)O[C@H](COS(=O)(=O)O)[C@@H](O)[C@@H]1OS(=O)(=O)O` (stereo partly shown) [glucosamine 3,6-disulfate] was run?
Answer: 4
